Results published in PubChem BioAssay (NCI).
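Cultured in 96-well plates, cells were exposed to test compound for 48 hours across five concentrations. TGI: total growth inhibition.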

Assays:
Assay in all cases: NCI anticancer screen, dose series, 48 h
COLO 205 colon = tested on: COLO 205 colon
KM12 colon = tested on: KM12 colon
SNB-75 CNS = tested on: SNB-75 CNS
NCI/ADR-RES ovarian = tested on: NCI/ADR-RES ovarian
ACHN renal = tested on: ACHN renal
K-562 leukemia = tested on: K-562 leukemia
A549 NSCLC = tested on: A549 NSCLC
HCT-116 colon = tested on: HCT-116 colon
BT-549 breast = tested on: BT-549 breast
HT29 colon = tested on: HT29 colon
TK-10 renal = tested on: TK-10 renal

SMILES	TGI (COLO 205 colon)	TGI (KM12 colon)	TGI (SNB-75 CNS)	TGI (NCI/ADR-RES ovarian)	TGI (ACHN renal)	TGI (K-562 leukemia)	TGI (A549 NSCLC)	TGI (HCT-116 colon)	TGI (BT-549 breast)	TGI (HT29 colon)	TGI (TK-10 renal)
CCSc1sc(=Nc2ccc(N=c3sc(C)c(SC)s3)cc2)sc1-c1ccc(C)cc1	> 100 µM	> 100 µM	> 100 µM	> 100 µM	> 100 µM	> 100 µM	> 100 µM	> 100 µM	> 100 µM	> 100 µM	> 100 µM
Cc1[nH]c2c(c1C)S(=O)(=O)c1cc3ccccc3nc1N2	46.3 µM	> 100 µM	45.7 µM	> 100 µM	> 100 µM	> 100 µM	> 100 µM	> 100 µM	> 100 µM	28.2 µM	> 100 µM
CCCN(CCCC(NC(C)=O)C(=O)NCc1ccccc1)C(=O)N(CCCl)N=O (stereo not drawn)	42.6 µM	42.3 µM	39.8 µM	> 100 µM	37.5 µM	87.6 µM	68.7 µM	29 µM	54.1 µM	> 66.7 µM	83.4 µM
COC(=O)NCCc1[nH]nc2c1C(=O)C=C(N1CCOCC1)C2=O	> 100 µM	> 100 µM	> 100 µM	> 100 µM	> 100 µM	> 100 µM	> 100 µM	> 100 µM	> 100 µM	> 100 µM	> 100 µM
C[C@H](CCC(=O)NCCS(=O)(=O)O)[C@H]1CC[C@H]2[C@@H]3CC[C@@H]4C[C@H](O)CC[C@]4(C)[C@H]3CC[C@]12C	> 100 µM	> 100 µM	> 100 µM	> 100 µM	> 100 µM	> 100 µM	> 100 µM	> 100 µM	> 100 µM	> 100 µM	> 100 µM
CCOC(=O)c1ccc(Nc2c3c(nc4ccccc24)CCCC3)cc1	> 100 µM	> 100 µM	> 54.8 µM	> 100 µM	> 100 µM	> 100 µM	> 100 µM	> 100 µM	> 100 µM	> 100 µM	> 100 µM
CCCCC(C#N)(OP1(=O)OC(c2ccccc2)C(C)N1C)c1ccccc1 (stereo not drawn)	35.4 µM	37.2 µM	37.3 µM	52 µM	37.5 µM	44.8 µM	44.3 µM	30.4 µM	43.6 µM	33.8 µM	37.1 µM
COC(=O)C(Cc1c(C2Nc3ccccc3C2CC(NC(=O)CNC(C)=O)C(=O)OC)[nH]c2ccccc12)NC(=O)CNC(C)=O (stereo not drawn)	> 100 µM	> 100 µM	> 100 µM	> 100 µM	> 100 µM	> 100 µM	> 100 µM	> 100 µM	> 100 µM	> 100 µM	> 100 µM
